Measurements reported in patent US9668993B2, “Non-steroidal anti-inflammatory drug dosing regimen” (Johnson & Johnson Consumer Inc., priority 2003, dated 2017).

Test system: moderate to severe post-operative dental pain
Assay: PK/PD dental pain study, pain relief scores and pain intensity differences over 12 hours
Assay type: in vivo, human
Conditions: for pain relief during the first four hours: compared with the other treatments
Method: A double-blind, randomized, parallel, placebo-controlled, single center, PK/PD dental pain study was conducted over a 12 hour observation period to evaluate the pharmacokinetic, pharmacodynamic, efficacy and safety profiles of certain ibuprofen dosing regimens. Specifically, a single dose of 600 mg ibuprofen extended release caplets was compared with equivalent total doses of ibuprofen immediate release 200 mg caplets administered in three different dosing regimens as well as placebo in the treatment of moderate to severe post-operative dental pain.
The ibuprofen was administered as ibuprofen extended release 600 mg caplets or one or more ibuprofen immediate release 200 mg caplets.
The patients evaluated in this study consisted of male or non-pregnant and non-lactating female out-patient volunteers, 16 years of age or older, complaining of moderate to severe pain following the surgical extraction of three or four third molars with at least one partial or complete bony impacted third mandibular molar. The term impacted included: partial bony impaction, bony impaction, or complicated bony impaction. A total of 210 patients were entered into the study. 208 patients were eligible for the efficacy analyses.
All patients who met the entrance criteria were enrolled in one of two study sub-groups. One sub-group of patients had both pharmacokinetic and pharmacodynamic evaluation (PK group). The other sub-group of patients had only the analgesic efficacy evaluations (non-PK group). A separate randomization schedule was used for each of the two sub-groups. Patients from both subgroups were assigned at random to one of the five following treatments:
Patients' assessments of pain intensity and pain relief as well as blood samples for plasma ibuprofen analysis were obtained at the study site at hours 0, 0.25, 0.5, 1, 1.5, 2, 2.5, 3, 4, 4.5, 5, 6, 7, 8, 8.5, 9, 10, 11 and 12. A stopwatch technique was used to measure the onset of meaningful pain relief.

CC(C)Cc1ccc(C(C)C(=O)O)cc1 (centres unmarked) [ibuprofen, 2-(4-isobutylphenyl)-propionic acid]
pain relief during the first four hours (400/200/0 regimen: immediate release 400 mg at 0 hour, 200 mg at 4 hours): superior pain relief over the other treatments | pain relief over the entire 12 hour study period (400/200/0 regimen: immediate release 400 mg at 0 hour, 200 mg at 4 hours, patients after third molar extraction): excellent pain relief | pain relief scores during the 4 to 12 hour interval (400/200/0 regimen, no further ibuprofen after the first four hours): highest pain relief scores | pain intensity differences (PID) over the 12 hour study period (400/200/0 regimen, particularly after the four hour mark): best PID | pain relief during the first four hours (600/0/0 immediate release regimen: 600 mg single dose at 0 hour): superior pain relief over the other treatments
